# From PubChem BioAssay (NCI)
#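 Growth conditions: 96-well plates. Treatment: test compound, 48 hours, 5 concentrations. Analysis: linear interpolation between bracketing concentrations; unreached endpoints set to highest concentration. Definition used: TGI = concentration required for complete inhibition of growth.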
# Tests used:
# Assay in all cases: NCI tumour cell line growth inhibition, 48 h
# [1] = system: LXFL 529 NSCLC
# [2] = system: M19-MEL melanoma
# [3] = system: OVCAR-5 ovarian
# [4] = system: SF-268 CNS
# [5] = system: OVCAR-3 ovarian
# [6] = system: SNB-75 CNS
# [7] = system: ACHN renal
# [8] = system: IGROV1 ovarian
# [9] = system: CCRF-CEM leukemia
# [10] = system: A549 NSCLC
# [11] = system: OVCAR-8 ovarian
# [12] = system: UACC-62 melanoma
# [13] = system: NCI-H460 lung
# [14] = system: SNB-19 CNS
# [15] = system: UACC-257 melanoma
# [16] = system: DLD-1 colon
# [17] = system: SW-620 colon
# [18] = system: SK-OV-3 ovarian
# [19] = system: HOP-62 NSCLC
# [20] = system: MALME-3M melanoma
# [21] = system: SK-MEL-5 melanoma
# [22] = system: HCT-116 colon
# [23] = system: CAKI-1 renal
# [24] = system: SN12C renal
# [25] = system: DMS 273 small cell lung
# [26] = system: HCT-15 colon
# [27] = system: SK-MEL-28 melanoma
# [28] = system: EKVX NSCLC
# [29] = system: HT29 colon
# [30] = system: A498 renal
# [31] = system: NCI-H23 lung
# [32] = system: TK-10 renal
# [33] = system: XF 498 CNS
# [34] = system: HCC-2998 colon
# [35] = system: UO-31 renal
# [36] = system: RXF-631 renal
# [37] = system: M14 melanoma
# [38] = system: 786-0 renal
# [39] = system: DMS 114 small cell lung
# [40] = system: OVCAR-4 ovarian
# [41] = system: HL-60(TB) leukemia
# [42] = system: KM12 colon
# [43] = system: RPMI-8226 leukemia
# [44] = system: COLO 205 colon
# [45] = system: K-562 leukemia
# [46] = system: SNB-78 CNS
# [47] = system: NCI-H522 lung
# [48] = system: HOP-92 NSCLC
# [49] = system: RXF 393 renal
# [50] = system: LOX IMVI melanoma
# [51] = system: SF-539 CNS
# [52] = system: SF-295 CNS
# [53] = system: NCI-H226 lung
# [54] = system: U251 CNS
# [55] = system: KM20L2 colon
# [56] = system: SR leukemia
# [57] = system: MOLT-4 leukemia
# [58] = system: HOP-18 NSCLC
# [59] = system: SK-MEL-2 melanoma
structure (smiles),measurement,setting,value
COC(=O)C(Cc1c[nH]c2ccccc12)NC(=O)C(Cc1c[nH]c2ccccc12)NC(=O)OCc1ccccc1 (stereo unspecified),TGI,[1],31.2 µM
same,TGI,[2],32.4 µM
same,TGI,[3],31.5 µM
same,TGI,[4],34.6 µM
same,TGI,[5],29 µM
same,TGI,[6],39.9 µM
same,TGI,[7],39.2 µM
same,TGI,[8],36.6 µM
same,TGI,[9],61.3 µM
same,TGI,[10],33 µM
same,TGI,[11],31.7 µM
same,TGI,[12],33.4 µM
same,TGI,[13],32 µM
same,TGI,[14],31.6 µM
same,TGI,[15],> 100 µM
same,TGI,[16],32.7 µM
same,TGI,[17],31.3 µM
same,TGI,[18],34.3 µM
same,TGI,[19],37.6 µM
same,TGI,[20],> 100 µM
same,TGI,[21],82.2 µM
same,TGI,[22],32.4 µM
same,TGI,[23],40 µM
same,TGI,[24],30.9 µM
same,TGI,[25],29.8 µM
same,TGI,[26],31.3 µM
same,TGI,[27],31.8 µM
same,TGI,[28],33.5 µM
same,TGI,[29],34.7 µM
same,TGI,[30],> 100 µM
same,TGI,[31],32.2 µM
same,TGI,[32],41.4 µM
same,TGI,[33],30.7 µM
same,TGI,[34],31.6 µM
same,TGI,[35],44 µM
same,TGI,[36],51.1 µM
same,TGI,[37],38 µM
same,TGI,[38],29.7 µM
same,TGI,[39],33.5 µM
same,TGI,[40],30.1 µM
same,TGI,[41],48.7 µM
same,TGI,[42],33.5 µM
same,TGI,[43],34.6 µM
same,TGI,[44],30.6 µM
same,TGI,[45],56.6 µM
same,TGI,[46],60.2 µM
same,TGI,[47],32.2 µM
same,TGI,[48],48.6 µM
same,TGI,[49],35.1 µM
same,TGI,[50],32.2 µM
same,TGI,[51],30.4 µM
same,TGI,[52],31.9 µM
same,TGI,[53],40.3 µM
same,TGI,[54],30.6 µM
same,TGI,[55],32.2 µM
Cc1cc(C)nc(NS(=O)(=O)c2ccc(NC(=O)c3cccc4c(Nc5ccc(S(=O)(=O)N=C(N)N)cc5)c5ccc(Cl)cc5nc34)cc2)n1,TGI,[1],> 100 µM
same,TGI,[2],> 100 µM
same,TGI,[3],> 100 µM
same,TGI,[4],> 100 µM
same,TGI,[5],52.2 µM
same,TGI,[6],> 100 µM
same,TGI,[7],> 100 µM
same,TGI,[9],> 100 µM
same,TGI,[11],> 100 µM
same,TGI,[12],> 100 µM
same,TGI,[13],> 100 µM
same,TGI,[14],53.3 µM
same,TGI,[15],59.9 µM
same,TGI,[16],43.2 µM
same,TGI,[18],> 100 µM
same,TGI,[19],> 100 µM
same,TGI,[20],> 100 µM
same,TGI,[22],35.4 µM
same,TGI,[24],> 100 µM
same,TGI,[26],> 100 µM
same,TGI,[27],> 100 µM
same,TGI,[28],> 100 µM
same,TGI,[29],> 100 µM
same,TGI,[30],> 100 µM
same,TGI,[31],> 100 µM
same,TGI,[32],> 100 µM
same,TGI,[33],> 100 µM
same,TGI,[34],43.5 µM
same,TGI,[35],> 100 µM
same,TGI,[36],> 100 µM
same,TGI,[37],> 100 µM
same,TGI,[38],32.2 µM
same,TGI,[39],> 100 µM
same,TGI,[42],> 100 µM
same,TGI,[56],80.5 µM
same,TGI,[43],63 µM
same,TGI,[45],> 100 µM
same,TGI,[46],> 100 µM
same,TGI,[47],39.8 µM
same,TGI,[57],60.8 µM
same,TGI,[49],36.5 µM
same,TGI,[50],43.3 µM
same,TGI,[51],73.7 µM
same,TGI,[52],53 µM
same,TGI,[54],31.4 µM
same,TGI,[55],> 100 µM
COc1cc(C(=O)C(CO)Oc2ccccc2OC)ccc1O (stereo unspecified),TGI,[1],> 100 µM
same,TGI,[2],> 100 µM
same,TGI,[3],> 100 µM
same,TGI,[4],> 100 µM
same,TGI,[5],> 100 µM
same,TGI,[6],> 100 µM
same,TGI,[7],> 100 µM
same,TGI,[8],> 100 µM
same,TGI,[9],> 100 µM
same,TGI,[10],> 100 µM
same,TGI,[11],> 100 µM
same,TGI,[12],> 100 µM
same,TGI,[13],> 100 µM
same,TGI,[14],> 100 µM
same,TGI,[15],> 100 µM
same,TGI,[16],> 100 µM
same,TGI,[17],> 100 µM
same,TGI,[18],> 100 µM
same,TGI,[19],> 100 µM
same,TGI,[20],> 100 µM
same,TGI,[21],> 100 µM
same,TGI,[22],> 100 µM
same,TGI,[23],> 100 µM
same,TGI,[24],> 100 µM
same,TGI,[25],> 100 µM
same,TGI,[26],> 100 µM
same,TGI,[27],> 100 µM
same,TGI,[28],> 100 µM
same,TGI,[29],> 100 µM
same,TGI,[31],> 100 µM
same,TGI,[32],> 100 µM
same,TGI,[34],> 100 µM
same,TGI,[35],> 100 µM
same,TGI,[36],> 100 µM
same,TGI,[37],> 100 µM
same,TGI,[38],> 100 µM
same,TGI,[39],> 100 µM
same,TGI,[40],> 100 µM
same,TGI,[41],> 100 µM
same,TGI,[42],> 100 µM
same,TGI,[56],> 100 µM
same,TGI,[44],> 100 µM
same,TGI,[58],> 100 µM
same,TGI,[45],> 100 µM
same,TGI,[46],> 100 µM
same,TGI,[47],> 100 µM
same,TGI,[48],> 100 µM
same,TGI,[57],> 100 µM
same,TGI,[51],> 100 µM
same,TGI,[52],> 100 µM
same,TGI,[53],> 100 µM
same,TGI,[54],> 100 µM
same,TGI,[55],> 100 µM
COc1cc([C@@H]2c3cc4c(cc3[C@@H](NC(=O)c3cccc(N)c3)C3COC(=O)[C@@H]32)OCO4)cc(OC)c1O (stereo partly specified),TGI,[1],> 100 µM
same,TGI,[2],> 100 µM
same,TGI,[3],12.8 µM
same,TGI,[4],13.9 µM
same,TGI,[5],30.2 µM
same,TGI,[6],11.6 µM
same,TGI,[7],2.4 µM
same,TGI,[8],> 41.6 µM
same,TGI,[9],> 33 µM
same,TGI,[10],2.55 µM
same,TGI,[11],14.8 µM
same,TGI,[12],7.94 µM
same,TGI,[13],1.97 µM
same,TGI,[14],31.6 µM
same,TGI,[15],> 100 µM
same,TGI,[16],> 67.2 µM
same,TGI,[17],35 µM
same,TGI,[18],> 22.9 µM
same,TGI,[19],0.0964 µM
same,TGI,[20],8.87 µM
same,TGI,[21],6.16 µM
same,TGI,[22],> 42.4 µM
same,TGI,[23],6.18 µM
same,TGI,[24],3.78 µM
same,TGI,[25],12.1 µM
same,TGI,[26],19.7 µM
same,TGI,[27],> 88.5 µM
same,TGI,[59],10.1 µM
same,TGI,[28],15.6 µM
same,TGI,[29],21.3 µM
same,TGI,[30],8.08 µM
same,TGI,[31],2.22 µM
same,TGI,[32],18.4 µM
same,TGI,[33],25 µM
same,TGI,[34],7.23 µM
same,TGI,[35],26.1 µM
same,TGI,[36],18.5 µM
same,TGI,[37],> 20.4 µM
same,TGI,[38],2.3 µM
same,TGI,[40],> 66.9 µM
same,TGI,[41],2.11 µM
same,TGI,[42],15 µM
same,TGI,[56],0.321 µM
same,TGI,[43],18.1 µM
same,TGI,[44],> 100 µM
same,TGI,[45],> 49.3 µM
same,TGI,[46],> 84.4 µM
same,TGI,[48],15.9 µM
same,TGI,[57],2.33 µM
same,TGI,[49],23.5 µM
same,TGI,[50],12.7 µM
same,TGI,[51],1.53 µM
same,TGI,[52],5.13 µM
same,TGI,[53],1.62 µM
same,TGI,[54],4.51 µM
same,TGI,[55],36 µM
CC12OC3(O)C4C5CC(C6C5C3C61)C42 (stereo unspecified),TGI,[1],53.1 µM
same,TGI,[2],> 100 µM
same,TGI,[4],> 100 µM
same,TGI,[6],> 100 µM
same,TGI,[7],> 100 µM
same,TGI,[9],> 100 µM
same,TGI,[10],> 100 µM
same,TGI,[11],> 100 µM
same,TGI,[12],> 100 µM
same,TGI,[14],> 100 µM
same,TGI,[15],> 100 µM
same,TGI,[16],> 100 µM
same,TGI,[17],> 100 µM
same,TGI,[18],> 100 µM
same,TGI,[19],> 100 µM
same,TGI,[20],> 100 µM
same,TGI,[22],> 100 µM
same,TGI,[23],> 100 µM
same,TGI,[24],> 100 µM
same,TGI,[25],> 100 µM
same,TGI,[26],> 100 µM
same,TGI,[27],> 100 µM
same,TGI,[59],> 100 µM
same,TGI,[32],> 100 µM
same,TGI,[34],> 100 µM
same,TGI,[35],> 100 µM
same,TGI,[36],> 100 µM
same,TGI,[37],> 100 µM
same,TGI,[38],> 100 µM
same,TGI,[39],> 100 µM
same,TGI,[40],> 100 µM
same,TGI,[41],> 100 µM
same,TGI,[42],> 100 µM
same,TGI,[56],> 100 µM
same,TGI,[43],> 100 µM
same,TGI,[44],> 100 µM
same,TGI,[58],> 100 µM
same,TGI,[45],> 100 µM
same,TGI,[46],> 100 µM
same,TGI,[47],> 100 µM
same,TGI,[57],> 100 µM
same,TGI,[49],> 100 µM
same,TGI,[51],> 100 µM
same,TGI,[53],> 100 µM
same,TGI,[54],> 100 µM
same,TGI,[55],> 100 µM
